One data set deals with PC-3 cells. Kind of data set: MTT viability assay, PC-3. It is filed as cell-based. The settings on record: Homo sapiens. Background: Formazan colour is commonly taken as a measure of viable cells.
The subject of the next data set is LNCaP-abl cells. Kind of data set: MTT viability assay, LNCaP-abl. It is filed as cell-based. The settings on record: Homo sapiens; LNCaP-abl cells (comparable to parental LNCaP); read-out: IC50, antiproliferative effect. The method, then:
The prostate cancer cell lines, LNCaP and PC-3, were purchased from American Type Culture Collection (Manassas, Va.) and maintained in RPMI 1640 medium containing 10% heat-inactivated fetal bovine serum at 37° C. in a humidified incubator containing 5% CO2. The LNCaP-abl cells were a generous gift from Dr. Qianben Wang (The Ohio State University). Normal prostate epithelial cells were purchased from Lonza (Walkersville, Md.) and were cultured in the vendor-recommended defined prostate epithelial cell growth medium. For experiments, LNCaP cells were plated on poly-D-lysine-coated culture flasks at a density of 12,000 cells per cm^2 surface area for 24 hours, followed by treatment with test agents in serum-free RPMI 1640 medium. The α- and γ-tocopherols were purchased from Sigma-Aldrich (St. Louis, Mo.). The tocopherol derivatives, α- and γ-VE5, were synthesized by the inventors.
LNCaP cells were plated into poly-D-lysine-coated 96-well plates and PC-3 and LNCaP-abl cells into uncoated plates at the density of 5,000 cells per well in the presence of 10% FBS. […] The medium was then removed from each well and replaced with DMSO to dissolve the reduced MTT dye for subsequent colorimetric measurement of absorbance at 595 nm. Cell viabilities are calculated as percentages of that in the corresponding vehicle-treated control group.

Data set [1] has as its target T1, PH domain of Akt (GST-PH domain fusion protein) (Homo sapiens, UniProt P31749).
T1 construct: made in house
Nature of the data set: Surface plasmon resonance binding, Akt PH domain. The settings on record: SPR, wild-type PH domain; means (n = 3) ± SD; read-out: Kd, Akt PH domain. The text has this: The cDNA fragments corresponding to the putative PH domain sequences of PHLPP1 (+115 to +372), PDK1 (+1225 to +1671), Akt1 (+1 to +447) and ILK (+538 to +646) were PCR-amplified using the plasmids pcDNA-HA-PHLPP1, pWZL-Neo-Myr-FLAG-PDPK1, pcDNA-HA-PKB-T308D-S473D, and pCMV-SPORT-ILK (Addgene) as templates. The PCR products were then cloned into EcoRI/XhoI sites of the pGEX-4T1 expression vector (GE Healthcare Life Sciences) to generate four constructs (pGEX-4T1-PHLPP1, pGEX-4T1-PDPK1, pGEX-4T1-AKT1, pGEX-4T1-ILK) for the expression of GST-PH domain fusion proteins. The mutated Akt1 Y38G PH domain was generated from pGEX-4T1-AKT1 by site-directed mutagenesis using the QuikChange II XL Site-Directed Mutagenesis Kit (Agilent Technologies). The expression and purification of GST-PH domain fusion proteins were performed essentially as described previously. Thomas et al., Curr Biol 12, 1256 (2002). The purified PH domains were analyzed by SDS-PAGE using an overloaded gel with purities were estimated to be >95% using ImageJ software.
(§1) Binding experiments were performed using a Biacore T100 system (GE Healthcare, Piscataway, N.J.). The GST-PH domain fusion proteins were immobilized on a CM5 S Sensorchip using Biacore's Amine Coupling Kit to a level of 17,000 response units. VE5 compounds and di-octanoyl PIP3 at concentrations ranging from 0.1 to 100 μM and 1 to 20 μm, respectively, were injected at a high flow rate (30 μL/min) over the biosensor surface for binding analyses. DMSO concentrations in all samples and running buffer were 1% (v/v) or less. Data were analyzed using Biacore T100 Evaluation Software.

Data set [2] has as its target VL2-deleted mutant of the PH domain of Akt (Homo sapiens, UniProt P31749). Nature of the data set: Surface plasmon resonance binding, VL2-deleted Akt PH domain. Conditions: SPR. As to the method: as §1
Background: SPR reads the build-up and loss of mass on a sensor chip optically.

In data set [3] the test system is PC-3-luc xenograft tumors. Kind of data set: PC-3-luc subcutaneous xenograft in athymic nude mice. The class given is in vivo. Conditions: 50 mg/kg daily intraperitoneal, 21 days. As to the method: (§2) Male athymic nude mice (Hsd:Athymic Nude-Foxn1^nu/nu, 5-7 weeks of age) were purchased from Harlan Laboratories and group-housed under conditions of constant photoperiod (12 hours light: 12 hours dark) with ad libitum access to sterilized food and water. Ectopic tumors were established in athymic nude mice by subcutaneous injection of 1×10^6 PC-3-luc or 2×10^6 LNCaP-abl cells in a total volume of 0.1 mL serum-free medium containing 50% Matrigel (BD Biosciences). The establishment and growth of tumors were monitored weekly by measurement with calipers (tumor volume=width^2×length×0.52) and bioluminescence (PC-3-luc) using the IVIS™ imaging system (Xenogen Corporation, Alameda, Calif.). For bioluminescent imaging, mice anesthetized with isoflurane were imaged at 15, 20 and 25 min after intraperitoneal administration of firefly luciferin (150 mg/kg; Caliper Life Sciences) to capture maximal luminescence. Data acquisition and analysis were achieved using the Living Image® software (Xenogen). […] Body weights and tumor burdens were measured weekly. At the study endpoint, mice were euthanized, and blood was collected by cardiac puncture from all mice and submitted to The Ohio State University Comparative Pathology and Mouse Phenotyping Shared Resource for determination of complete blood counts and serum chemistry.

In data set [4] the test system is LNCaP-abl xenograft tumors. Nature of the data set: LNCaP-abl subcutaneous xenograft in athymic nude mice. The class given is in vivo. As to the method: as §2
Data set [5] is described as follows: Toxicologic evaluation in PC-3-luc tumor-bearing mice. It is filed as in vivo. The method, then:
as §2

Where [6] appears, read: 50 mg/kg daily intraperitoneal, 21 days.
Setting [7] is: values within the normal ranges for mice.

Like-named read-outs stand apart in the source and are kept apart here.

Data on two molecules can be found in US20140031388A1, “AKT INACTIVATION BY TOCOPHERYL DERIVATIVES” (priority 2012, published 2014).

Usually IC50 stands for the concentration needed to halve the response being measured. As a reminder, the Kd is the constant that tells how readily two partners part at equilibrium.

T1 sequence (P31749 5-108 limits assumed): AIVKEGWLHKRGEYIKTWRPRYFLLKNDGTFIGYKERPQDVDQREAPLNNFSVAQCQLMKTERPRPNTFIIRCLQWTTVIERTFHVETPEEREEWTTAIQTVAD
Chain of VL2-deleted mutant of the PH domain of Akt (P31749 whole entry, looked up, stated change not applied, the tested form may be a part): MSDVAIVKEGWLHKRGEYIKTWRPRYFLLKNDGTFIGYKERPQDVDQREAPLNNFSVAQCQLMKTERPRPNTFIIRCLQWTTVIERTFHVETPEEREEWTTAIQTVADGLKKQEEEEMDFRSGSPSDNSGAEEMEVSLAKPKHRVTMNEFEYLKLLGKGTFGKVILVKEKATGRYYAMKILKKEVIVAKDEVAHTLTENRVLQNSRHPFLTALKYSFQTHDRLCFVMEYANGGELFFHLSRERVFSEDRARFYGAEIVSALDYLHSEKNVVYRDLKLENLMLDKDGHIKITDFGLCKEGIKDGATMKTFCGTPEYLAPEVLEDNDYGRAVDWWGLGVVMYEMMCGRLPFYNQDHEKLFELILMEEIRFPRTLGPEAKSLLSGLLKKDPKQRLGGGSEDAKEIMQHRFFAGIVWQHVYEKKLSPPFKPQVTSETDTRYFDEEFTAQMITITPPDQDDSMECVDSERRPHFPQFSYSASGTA

`Cc1c(O)cc2c(c1C)O[C@](C)(CCCC(C)C)CC2` [γ-VE5, (R)-2,7,8-trimethyl-2-(4-methylpentyl)-chroman-6-ol]: the IC50 worked out at 8 µM in the data set with PC-3 cells (PC-3, 24 h, 1% FBS-containing or serum-free RPMI 1640 medium for 24 h, read-out: IC50 (μM) PC-3); 8.5 µM in the data set on PC-3 cells (PC-3, Table 3, antitumor activities against PC-3 cells, read-out: IC50); 7 µM with LNCaP-abl cells. In addition, the dissociation constant (Kd) in data set [1] is 0.9 ± 0.1 µM; in data set [2], 30 ± 4 µM. Also, the “PC-3-luc tumor growth relative to vehicle-treated controls (bioluminescence)” value in data set [3] (P<0.05) is “inhibited PC-3-luc tumor growth”. In addition, the “intratumoral phosphorylation of Akt, MDM2 and IKKα” value in data set [3] (PC-3-luc tumors) is “suppressed phosphorylation of Akt at Ser^473 without disrupting that at Thr^308”. The “LNCaP-abl tumor growth relative to vehicle-treated controls” value in data set [4] (setting [6]) is given as “significantly inhibited tumor growth”. For the same molecule, in data set [4] (LNCaP-abl tumors, relative to vehicle-treated controls), the “intratumoral phosphorylation of Akt at Ser473, MDM2 and IKKα” value was “reduced phosphorylation”. The “gross pathology findings at necropsy” value in data set [5] (setting [6]) is “abdominal adhesions and variable amounts of clear fluid within the abdomen”. In addition, the “change of mean body weight over the treatment period” value in data set [5] (50 mg/kg daily intraperitoneal, 21 days, vehicle −0.2 grams) is on record as −0.7 grams; in data set [5] (50 mg/kg daily intraperitoneal, 21 days, vehicle −0.7%), −2.3%. In data set [5] (setting [7]), the “hematological findings relative to controls” value was “reductions in hematocrit, red blood cell numbers and hemoglobin concentration”. In addition, the serum chemistry findings entry in data set [5] (setting [7]) is “increase in aspartate aminotransferase and a decrease in serum albumin concentrations”.
On to `Cc1c(C)c2c(c(C)c1O)CC[C@@](C)(CCCC(C)C)O2` [α-VE5, (R)-2,5,7,8-tetramethyl-2-(4-methylpentyl)-chroman-6-ol], for which the IC50 in the data set on PC-3 cells (PC-3, 1% FBS-containing or serum-free RPMI 1640 medium for 24 h, read-out: IC50 (μM) PC-3) came to 15 µM; in the data set on LNCaP-abl cells it was 10 µM. Also, the dissociation constant Kd in data set [1] came to 3.4 µM.
